Earlier results in patent publication US9528030B1, “Cobalt inhibitor combination for improved dishing” (Cabot Microelectronics Corporation, priority 2015, dated 2016).
Read-outs that look alike come from different tables or passages of the source.

Conditions: n-octanol-water

| Azole Compound logP | Azole Compound logP (listed as benzotriazole) | SMILES |
| --- | --- | --- |
| −1.51 | – | Nc1n[nH]c(C(=O)O)n1 [3-Amino-1,2,4-triazole-5-carboxylic acid] |
| +1.44 | 1.44 | c1ccc2[nH]nnc2c1 [BTA, benzotriazole] |
| −1.54 | – | O=C(O)Cc1nnn[nH]1 [1H-Tetrazole-5-acetic acid] |

| SMILES | Azole Compound logP | Azole Compound logP (listed as benzotriazole) |
| --- | --- | --- |
| Nc1nnn[nH]1 [5-Aminotetrazole] | −0.92 | – |
